Experimental data from patent US12195427B2, “MASP-2 inhibitors and methods of use” (priority 2018, dated 2025).
Values belong to the molecule of their own block, whether it stands above or below them.

Target: MASP-2 CCP2-SP (Homo sapiens (Human), UniProt O00187)
Assay: MASP-2 co-crystallization, X-ray crystallography and structure analysis (H-bonds, van der Waals contacts);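 for Ligand-pharmacophore element distance, pharmacophore element C2: distance from averaged pharmacophore element to bound ligand; missing value means element absent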;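 for Ligand-pharmacophore element distance, pharmacophore element C3: distance from averaged pharmacophore element to bound ligand; missing value means element absent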;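 for Ligand-pharmacophore element distance, pharmacophore element C4: distance from averaged pharmacophore element to bound ligand; missing value means element absent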;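 for Ligand-pharmacophore element distance, pharmacophore element C5: distance from averaged pharmacophore element to bound ligand; missing value means element absent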
Design: van der Waals contact distance, MASP-2 HIS 483 atom CD2 / van der Waals contact distance, MASP-2 HIS 483 atom NE2 / van der Waals contact distance, SER 654 C to compound atom / van der Waals contact distance, SER 654 O to compound atom / van der Waals contact distance, TRP 655 C to compound atom / van der Waals contact distance, MASP-2 GLY 528 atom CA / van der Waals contact distance TRP 655 atom CZ3 / van der Waals contact distance TRP 655 atom N / van der Waals contact distance TRP 655 atom CE3 / van der Waals contact distance GLY 656 atom C / van der Waals contact distance GLY 656 atom CA / van der Waals contact distance GLY 656 atom O / van der Waals contact distance, MASP-2 TYR 607 atom CD1 / van der Waals contact distance, MASP-2 PRO 606 atom O / d(C3,CA1) / d(CA1,N1)2 / d(H4,O1) / d(H4,O2) / d(O1,O2) / d(CA1,O2) / d(CA6,O1) / d(CA6,O2) / d(CA1,C5) / d(O2,H3) / d(N2,C2) / d(CA5,N2) / d(N2,C4) / d(N2,C6) / d(N2,CA3) / d(N2,O3) / d(O4,H2): unit not given beside the values
Settings: for Ligand-pharmacophore element distance, pharmacophore element C2 / Ligand-pharmacophore element distance, pharmacophore element C3 / Ligand-pharmacophore element distance, pharmacophore element C4 / Ligand-pharmacophore element distance, pharmacophore element C5 / Ligand-pharmacophore element distance, pharmacophore element C6 / Ligand-pharmacophore element distance, pharmacophore element C7 / Ligand-pharmacophore element distance, pharmacophore element CA1 / Ligand-pharmacophore element distance, pharmacophore element CA2 / Ligand-pharmacophore element distance, pharmacophore element CA3 / Ligand-pharmacophore element distance, pharmacophore element CA4 / Ligand-pharmacophore element distance, pharmacophore element CA5 / Ligand-pharmacophore element distance, pharmacophore element CA6: Table A4-1; for Pharmacophore protein distance to MET_658 (first MET_658 column) / Pharmacophore protein distance to MET_658 (second MET_658 column) / Pharmacophore protein distance to GLY_528 / Pharmacophore protein distance to PHE_529 / Pharmacophore protein distance to PRO_608 / Pharmacophore protein distance to SER_611 / Pharmacophore protein distance to TRP_655: Table A8-6, nearest protein atom in cell to the left; for Pharmacophore protein distance to MET_658 (first MET_658 column): 6th residue column; for Pharmacophore protein distance to MET_658 (second MET_658 column): 9th residue column; for Pharmacophore protein distance to TRP_655: pharmacophore elements C6, CA3, O3, H1
Procedure, shortened: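 E. coli-expressed CCP2-SP (±6His); apo crystals soaked 1–2× in inhibitor-containing crystallization solution; optional 20% glycerol cryoprotection, LN2 flash-cool; synchrotron data at 1.0 wavelength; MR using 1Q3X portions, partial refinement; single pose analysed when several seen.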

[1] = Table A5-1 pharmacophore: distance between elements, S2/S1 region
[2] = Table A5-2 pharmacophore distance, S3/S4 region
[3] = Table A7-1, between pharmacophore elements of the bound compound
[4] = Table A7-2, between pharmacophore elements of the bound compound

MASP-2 CCP2-SP, sequence (O00187 445-686): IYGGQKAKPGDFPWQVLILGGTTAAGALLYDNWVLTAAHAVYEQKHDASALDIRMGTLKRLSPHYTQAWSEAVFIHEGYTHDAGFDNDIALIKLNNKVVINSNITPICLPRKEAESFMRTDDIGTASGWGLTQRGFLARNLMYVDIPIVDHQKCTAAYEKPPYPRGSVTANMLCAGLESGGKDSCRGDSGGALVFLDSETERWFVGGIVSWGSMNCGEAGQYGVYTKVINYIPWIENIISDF
MASP-2 CCP2-SP, sequence (O00187 364-432 partner): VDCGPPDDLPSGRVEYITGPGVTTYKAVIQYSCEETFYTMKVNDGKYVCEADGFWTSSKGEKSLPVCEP

Structure (SMILES): C[C@H](NC(=O)[C@H](N)CCCc1ccccc1)C(=O)NCc1ccc(C(=N)N)cc1.Cl.Cl [1042_1]
Ligand-pharmacophore element distance, pharmacophore element C2: 1.81
Ligand-pharmacophore element distance, pharmacophore element C3: 0
Ligand-pharmacophore element distance, pharmacophore element C4: 0
Ligand-pharmacophore element distance, pharmacophore element C5: 0
Ligand-pharmacophore element distance, pharmacophore element C6: 0
Ligand-pharmacophore element distance, pharmacophore element C7: 0
Ligand-pharmacophore element distance, pharmacophore element CA1: 0.87
Ligand-pharmacophore element distance, pharmacophore element CA2: 0.48
Ligand-pharmacophore element distance, pharmacophore element CA3: 0
Ligand-pharmacophore element distance, pharmacophore element CA4: 0
Ligand-pharmacophore element distance, pharmacophore element CA5: 0
Ligand-pharmacophore element distance, pharmacophore element CA6: 0
Ligand-pharmacophore element distance, pharmacophore element H1 (Table A4-2, element H1): 0
Ligand-pharmacophore element distance, pharmacophore element H2 (Table A4-2, element H2): 0
Ligand-pharmacophore element distance, pharmacophore element H3 (Table A4-2, element H3): 5.4
Ligand-pharmacophore element distance, pharmacophore element H4 (Table A4-2, element H4): 3.08
Ligand-pharmacophore element distance, pharmacophore element N1 (Table A4-2, element N1): 1.3
Ligand-pharmacophore element distance, pharmacophore element N2 (Table A4-2, element N2): 0.56
Ligand-pharmacophore element distance, pharmacophore element O1 (Table A4-2, element O1): 2.71
Ligand-pharmacophore element distance, pharmacophore element O2 (Table A4-2, element O2): 0.67
Ligand-pharmacophore element distance, pharmacophore element O3 (Table A4-2, element O3): 0
Ligand-pharmacophore element distance, pharmacophore element O4 (Table A4-2, element O4): 0
d(CA1,N1) [1]: 3.58
d(CA1,O1) [1]: 3.98
d(CA1,O2) [1]: 4.13
d(H4,O1) [1]: 3.35
d(H4,O2) [1]: 3.67
d(O1,O2) [1]: 3.40
d(N2,C2) [2]: 3.42
d(N2,CA2) [2]: 6.20
d(O2,H3) [2]: 5.43
d(O2,N2) [2]: 2.64
a(CA1, O1, O2) (Table A6-1 pharmacophore angle): 117.21
a(O1, O2, H4) (Table A6-1 pharmacophore angle): 122.15
A(N1, CA1, O1) a) (Table A6-1 pharmacophore angle, all compounds with protonatable center N1 except Methyl-amino-pyridine): 158.11
a(O1, O2, H3) (Table A6-2 pharmacophore angle): 149.96
a(O1, O2, N2) (Table A6-2 pharmacophore angle): 170.80
a(O2, N2, C2) (Table A6-2 pharmacophore angle): 140.47
a(O2, N2, CA2) (Table A6-2 pharmacophore angle): 155.50
Pharmacophore torsion angle a(H4, O1, O2, H3) [3]: −19.99
Pharmacophore torsion angle a(H4, O1, O2, N2) [3]: 68.67
Pharmacophore torsion angle a(N1, CA1, O2, H4) [3]: 9.10
Pharmacophore torsion angle a(O1, H4, O2, CA1) [3]: −160.50
Pharmacophore torsion angle a(O1, O2, N2, C2) [3]: 115.48
Pharmacophore torsion angle a(O1, O2, N2, CA2) [4]: 136.01
Pharmacophore protein distance to MET_658 (first MET_658 column): 2.06
Pharmacophore protein distance to MET_658 (second MET_658 column): 3.40
Pharmacophore protein distance to GLY_528: 4.67
Pharmacophore protein distance to PHE_529: 3.84
Pharmacophore protein distance to PRO_608: 3.46
Pharmacophore protein distance to SER_611: 2.14
Pharmacophore protein distance to TRP_655: 3.28

Structure (SMILES): C[C@H](NC(=O)[C@H]1C[C@@H](c2ccccc2)CN1)C(=O)NCc1ccc2c(N)nccc2c1.Cl.Cl [1089_B]
Ligand-pharmacophore element distance, pharmacophore element C2: 0
Ligand-pharmacophore element distance, pharmacophore element C3: 0
Ligand-pharmacophore element distance, pharmacophore element C4: 0
Ligand-pharmacophore element distance, pharmacophore element C5: 0
Ligand-pharmacophore element distance, pharmacophore element C6: 0
Ligand-pharmacophore element distance, pharmacophore element C7: 0
Ligand-pharmacophore element distance, pharmacophore element CA1: 0.99
Ligand-pharmacophore element distance, pharmacophore element CA2: 0
Ligand-pharmacophore element distance, pharmacophore element CA3: 0
Ligand-pharmacophore element distance, pharmacophore element CA4: 0
Ligand-pharmacophore element distance, pharmacophore element CA5: 1.16
Ligand-pharmacophore element distance, pharmacophore element CA6: 0
d(CA1,O1) [1]: 5.68
d(CA1,O2) [1]: 5.17
d(H4,O1) [1]: 3.14
d(H4,O2) [1]: 3.69
d(O1,O2) [1]: 3.33
d(CA5,N2) [2]: 5.10
d(O2,H3) [2]: 5.91
d(O2,N2) [2]: 2.70
a(CA1, O1, O2) (Table A6-1 pharmacophore angle): 99.20
a(O1, O2, H4) (Table A6-1 pharmacophore angle): 122.31
a(O1, O2, H3) (Table A6-2 pharmacophore angle): 152.83
a(O1, O2, N2) (Table A6-2 pharmacophore angle): 141.07
Pharmacophore torsion angle a(H4, O1, O2, H3) [3]: 89.27
Pharmacophore torsion angle a(H4, O1, O2, N2) [3]: −178.39
Pharmacophore torsion angle a(O1, H4, O2, CA1) [3]: −94.63
Pharmacophore torsion angle a(O1, O2, N2, CA5) [4]: 133.38
Pharmacophore protein distance to MET_658 (first MET_658 column): 2.61
Pharmacophore protein distance to MET_658 (second MET_658 column): 3.31
Pharmacophore protein distance to GLY_528: 3.59
Pharmacophore protein distance to PHE_529: 2.81
Pharmacophore protein distance to PRO_608: 3.90
Pharmacophore protein distance to SER_611: 2.79
Pharmacophore protein distance to TRP_655: 3.57

H-bond distance to MASP-2 ASP 627 atom OD2 (Table A1 (H-Bonds), ASP 627 OD2): 3.15
H-bond distance to MASP-2 GLY 656 atom N (Table A1 (H-Bonds), GLY 656 N): 3.15
H-bond distance to MASP-2 GLY 656 atom O (Table A1 (H-Bonds), GLY 656 O): 2.77
H-bond distance to MASP-2 SER 628 atom O (Table A1 (H-Bonds), SER 628 O): 3.15
H-bond distance to MASP-2 SER 654 atom O (Table A1 (H-Bonds), SER 654 O): 3.08
H-bond distance to MASP-2 SER 657 atom O (Table A1 (H-Bonds), SER 657 O): 2.88
van der Waals contact distance, MASP-2 HIS 483 atom CD2 (Table A2-1): 3.71
van der Waals contact distance, MASP-2 HIS 483 atom NE2 (Table A2-1): 3.59
van der Waals contact distance, MASP-2 PHE 529 atom CD2 (Table A2-3): 3.8
van der Waals contact distance, MASP-2 amino acid atom to compound atom (Table A2-6: SER 611 (CB, OG), ASP 627 (CG, OD1, OD2), SER 628 (C, CA)): 3.71
van der Waals contact distance, MASP-2 amino acid atom to compound atom (Table A2-7: SER 628 (CB, O, OG)): 3.56
van der Waals contact distance, MASP-2 amino acid atom to compound atom (Table A2-9, ARG 630, AA atoms CG, CZ): 3.86
van der Waals contact distance, MASP-2 amino acid atom to compound atom (Table A2-9 second part, ARG 630, AA atoms N, NE, NH1): 3.8
van der Waals contact distance, VAL 653 CG1 to compound atom (Table A2-11): 3.35
van der Waals contact distance, SER 654 O to compound atom (Table A2-12): 3.87
van der Waals contact distance, TRP 655 CA to compound atom (Table A2-12): 3.29
van der Waals contact distance TRP 655 atom CE3 (Table A2-13, MASP-2 TRP 655 CE3, compound atom in line below): 3.89
van der Waals contact distance TRP 655 atom CZ3 (Table A2-13, MASP-2 TRP 655 CZ3): 3.86
Ligand-pharmacophore element distance, pharmacophore element C2: 0
Ligand-pharmacophore element distance, pharmacophore element C3: 0.13
Ligand-pharmacophore element distance, pharmacophore element C4: 0
Ligand-pharmacophore element distance, pharmacophore element C5: 0
Ligand-pharmacophore element distance, pharmacophore element C6: 0
Ligand-pharmacophore element distance, pharmacophore element C7: 0
Ligand-pharmacophore element distance, pharmacophore element CA1: 0.5
Ligand-pharmacophore element distance, pharmacophore element CA2: 0.57
Ligand-pharmacophore element distance, pharmacophore element CA3: 0
Ligand-pharmacophore element distance, pharmacophore element CA4: 0
Ligand-pharmacophore element distance, pharmacophore element CA5: 3.27
Ligand-pharmacophore element distance, pharmacophore element CA6: 0
d(C3,CA1) [1]: 2.85
d(CA1,N1)2 [1]: 1.39
d(CA1,O1) [1]: 4.35
d(CA1,O2) [1]: 5.37
d(H4,O1) [1]: 4.37
d(H4,O2) [1]: 5.63
d(O1,O2) [1]: 4.72
d(O2,H3) [2]: 2.68
a(C3, CA1, O1) (Table A6-1 pharmacophore angle): 149.67
a(CA1, O1, O2) (Table A6-1 pharmacophore angle): 129.48
a(O1, O2, H4) (Table A6-1 pharmacophore angle): 125.36
a(N1, CA1, O1) b) (Table A6-1 pharmacophore angle, Methyl-amino-pyridine compounds): 173.97
a(O1, O2, H3) (Table A6-2 pharmacophore angle): 107.78
Pharmacophore torsion angle a(C3, CA1, O1, H4) [3]: 23.21
Pharmacophore torsion angle a(H4, O1, O2, H3) [3]: 42.45
Pharmacophore torsion angle a(N1, CA1, O1, H4) [3]: 1.25
Pharmacophore torsion angle a(O1, H4, O2, CA1) [3]: −85.54
Structure (SMILES): Cc1nc(N)ccc1CNC(=O)[C@H](C)NC(=O)c1cc(Cc2ccccc2)n[nH]1 [compound 1367, (S)—N-(1-(((6-Amino-2-methylpyridin-3-yl)methyl)amino)-1-oxopropan-2-yl)-3-benzyl-1H-pyrazole-5-carboxamide]
